Like-named read-outs stand apart in the source and are kept apart here.
Biological target: T1, OX1 (Homo sapiens, UniProt O43613)
T1 construct: expressed in transfected cells; host or cells: CHO (CHO-OX1, kept under selection antibiotic)
T1 sequence (O43613 1-425): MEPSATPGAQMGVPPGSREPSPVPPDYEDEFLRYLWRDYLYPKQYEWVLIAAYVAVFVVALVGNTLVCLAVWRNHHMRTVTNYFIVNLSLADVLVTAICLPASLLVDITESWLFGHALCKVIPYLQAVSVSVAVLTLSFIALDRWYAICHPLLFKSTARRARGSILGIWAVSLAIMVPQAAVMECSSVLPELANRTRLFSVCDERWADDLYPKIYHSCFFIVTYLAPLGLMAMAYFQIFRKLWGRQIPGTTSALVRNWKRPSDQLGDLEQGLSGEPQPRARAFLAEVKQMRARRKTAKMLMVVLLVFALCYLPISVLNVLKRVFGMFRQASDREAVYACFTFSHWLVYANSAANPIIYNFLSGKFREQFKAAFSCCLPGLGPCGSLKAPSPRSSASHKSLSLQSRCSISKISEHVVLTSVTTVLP
Test: Orexin receptor cell-based functional assay, [Ca2+]i by FLIPR, CHO-OX1 cells
Details: CHO-OX1 cells, EC90 of OXA
In short: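 Antagonist mode FLIPR calcium read in CHO-OX1 and CHO-OX2 lines. Test compounds, dosed 0.1 nM-10 μM, preincubated 30 min after 37° C dye loading with 2.5 mM probenecid (calcium4 for 30 min or calcium6 for 2 h).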

[1] = [Ca2+]i by FLIPR, antagonist dose-range 0.1 nM-10 μM, read-out: OX1
[2] = Table 2, read-out: IC50 Bioactivity OX1

Row | IC50 [1] | IC50 [2] | Structure (SMILES)
1 | 7 nM |  | Cc1nc(C(=O)N2CCC[C@H](C)[C@H]2CNc2ccc(C(F)(F)F)cn2)c(-c2ccc(F)cc2)s1 (racemic) [Example A65, rac-trans-(5-(4-Fluorophenyl)-2-methylthiazol-4-yl)(3-methyl-2-(((5-(trifluoromethyl)pyridin-2-yl)amino)methyl)piperidin-1-yl)methanone]
2 |  | 6 nM | O=C(NC[C@@H]1C[C@H](F)CN1C(=O)c1ccccc1-c1ccccc1)c1cccc2cccnc12 [Example 5, N-(((2S,4S)-1-(Biphenylcarbonyl)-4-fluoropyrrolidin-2-yl)methyl)quinoline-8-carboxamide]
3 |  | 30 nM | O=C1C[C@@H](CNC(=O)c2cccc3cccnc23)N(C(=O)c2ccccc2-c2ccccc2)C1 [Example 6, (S)—N-((1-(Biphenylcarbonyl)-4-oxopyrrolidin-2-yl)methyl)quinoline-8-carboxamide]
4 |  | 35 nM | O=C(NC[C@@H]1C[C@@H](F)CN1C(=O)c1ccccc1-c1ccccc1)c1cccc2cccnc12 [Example 128, N-(((2S,4R)-1-(Biphenylcarbonyl)-4-fluoropyrrolidin-2-yl)methyl)quinoline-8-carboxamide]
5 |  | 6 nM | Cc1nc(-c2ccccc2)c(C(=O)N2CC[C@H](O)[C@H]2CNC(=O)c2cccc3cccnc23)s1 [Example 130, N-(((2R,3S)-3-Hydroxy-1-(2-methyl-4-phenylthiazole-5-carbonyl)pyrrolidin-2-yl)methyl)quinoline-8-carboxamide]
6 |  | 53 nM | CC(=O)O[C@H]1C[C@@H](CNC(=O)c2cccc3cccnc23)N(C(=O)c2ccccc2-c2ccccc2)C1 [Example 131, (3S,5S)-1-([1,1′-Biphenyl]-2-carbonyl)-5-((quinoline-8-carboxamido)methyl)pyrrolidin-3-yl acetate]
7 |  | 230 nM | Cc1nc(-c2ccccc2)c(C(=O)N2CCC(=O)[C@H]2CNC(=O)c2cccc3cccnc23)s1 [Example 132, (R)—N-((1-(2-Methyl-4-phenylthiazole-5-carbonyl)-3-oxopyrrolidin-2-yl)methyl)quinoline-8-carboxamide]
8 |  | 12 nM | Cc1nc(-c2ccccc2)c(C(=O)N2CCC(F)(F)[C@H]2CNC(=O)c2cccc3cccnc23)s1 [Example 133, (R)—N-((3,3-Difluoro-1-(2-methyl-4-phenylthiazole-5-carbonyl)pyrrolidin-2-yl)methyl)quinoline-8-carboxamide]
9 |  | 5 nM | Cc1nc(-c2ccccc2)c(C(=O)N2CC[C@@H](O)C[C@H]2CNC(=O)c2cccc3cccnc23)s1 [Example 134, N-(((2S,4R)-4-Hydroxy-1-(2-methyl-4-phenylthiazole-5-carbonyl)piperidin-2-yl)methyl)quinoline-8-carboxamide]
10 | 11 nM |  | Cc1ccc(-c2cnn(C)c2)c(C(=O)N2CCC[C@@H](C)[C@H]2CNc2ccc(F)cn2)c1 [Example A44, ((2S,3R)-2-(((5-Fluoropyridin-2-yl)-amino)methyl)-3-methylpiperidin-1-yl)(5-methyl-2-(1-methyl-1H-pyrazol-4-yl)phenyl)methanone]
11 | 500 nM |  | Cc1ccc(NC[C@@H]2[C@H](C)CCCN2C(=O)c2cc(C)ccc2-c2cnn(C)c2)nc1 [Example A49, ((2S,3R)-3-Methyl-2-(((5-methylpyridin-2-yl)amino)methyl)piperidin-1-yl)(5-methyl-2-(1-methyl-1H-pyrazol-4-yl)phenyl)methanone]
12 | 230 nM |  | Cc1ccc(-c2ccnn2C)c(C(=O)N2CCC[C@@H](C)[C@H]2CNc2nc3cc(Cl)ccc3o2)c1 [Example A50, ((2S,3R)-2-(((5-Chlorobenzo[d]oxazol-2-yl)amino)methyl)-3-methylpiperidin-1-yl)(5-methyl-2-(1-methyl-1H-pyrazol-5-yl)phenyl)methanone]
13 | > 1000 nM |  | Cc1ccc(-n2cnc(C(F)(F)F)n2)c(C(=O)N2CCC[C@@H](C)[C@H]2CNc2ccc(C#N)cn2)c1 [Example A51, 6-((((2S,3R)-3-Methyl-1-(5-methyl-2-(3-(trifluoromethyl)-1H-1,2,4-triazol-1-yl)benzoyl)piperidin-2-yl)methyl)amino)nicotinonitrile]
14 | 670 nM |  | Cc1ccc(-c2ccnc(C)c2)c(C(=O)N2CCC[C@@H](C)[C@H]2CNc2ccc(F)cn2)c1 [Example A53, ((2S,3R)-2-(((5-Fluoropyridin-2-yl)amino)methyl)-3-methylpiperidin-1-yl)(5-methyl-2-(2-methylpyridin-4-yl)phenyl)methanone]
15 | 230 nM |  | Cc1ccc(-c2ccccn2)c(C(=O)N2CCC[C@@H](C)[C@H]2CNc2ccc(F)cn2)c1 [Example A58, ((2S,3R)-2-(((5-Fluoropyridin-2-yl)amino)methyl)-3-methylpiperidin-1-yl)(5-methyl-2-(pyridin-2-yl)phenyl)methanone]
16 | 1100 nM |  | Cc1ccc(-c2ccnn2C)c(C(=O)N2CCC[C@@H](C)[C@H]2CNc2ccc(F)cn2)c1 [Example A61, ((2S,3R)-2-(((5-Fluoropyridin-2-yl)amino)methyl)-3-methylpiperidin-1-yl)(5-methyl-2-(1-methyl-1H-pyrazol-5-yl)phenyl)methanone]
17 | > 1000 nM |  | Cc1ccc(-n2cnc(C(F)(F)F)n2)c(C(=O)N2CCC[C@@H](C)[C@H]2CNc2nc3cc(Cl)ccc3o2)c1 [Example A64, ((2S,3R)-2-(((5-Chlorobenzo[d]oxazol-2-yl)amino)methyl)-3-methylpiperidin-1-yl)(5-methyl-2-(3-(trifluoromethyl)-1H-1,2,4-triazol-1-yl)phenyl)methanone]
18 | 21 nM |  | Cc1ccc(-n2nccn2)c(C(=O)N2CC3CCCC3C2CNc2ccc(C(F)(F)F)cn2)c1 (stereo not drawn) [Example A69, (5-Methyl-2-(2H-1,2,3-triazol-2-yl)phenyl)(1-(((5-(trifluoromethyl)pyridin-2-yl)amino)methyl)hexahydrocyclopenta[c]pyrrol-2(1H)-yl)methanone]
19 | 70 nM |  | Cc1ccc(-c2cnn(C)c2)c(C(=O)N2CC3CCCC3C2CNc2ccc(C(F)(F)F)cn2)c1 (stereo not drawn) [Example A71, (5-Methyl-2-(1-methyl-1H-pyrazol-4-yl)phenyl)(1-(((5-(trifluoromethyl)pyridin-2-yl)amino)methyl)hexahydrocyclopenta[c]pyrrol-2(1H)-yl)methanone]
20 | 1300 nM |  | COc1c(F)cccc1C(=O)N1CCC[C@@H](C)[C@H]1CNc1ccc(C(F)(F)F)cn1 [Example A75, (3-Fluoro-2-methoxyphenyl)((2S,3R)-3-methyl-2-(((5-(trifluoromethyl)pyridin-2-yl)amino)methyl)piperidin-1-yl)methanone]
21 | > 1000 nM |  | Cc1nc(C(=O)N2CCCC3CN(c4nc5ccc(Cl)cc5o4)CC32)c(-c2ccc(F)cc2)s1 (stereo not drawn) [Example A76, (6-(6-Chlorobenzo[d]oxazol-2-yl)octahydro-1H-pyrrolo[3,4-b]pyridin-1-yl)(5-(4-fluorophenyl)-2-methylthiazol-4-yl)methanone]
22 | > 1000 nM |  | Cc1nc(C(=O)N2CCCC3CN(c4ccc(C(F)(F)F)cn4)CC32)c(-c2ccc(F)cc2)s1 (stereo not drawn) [Example A77, (5-(4-Fluorophenyl)-2-methylthiazol-4-yl)(6-(5-(trifluoromethyl)pyridin-2-yl)octahydro-1H-pyrrolo[3,4-b]pyridin-1-yl)methanone]
23 | < 10 nM |  | Cc1nc(C(=O)N2CCC[C@@H](C)[C@H]2CNc2ccc(C(F)(F)F)cn2)c(-c2cccc(F)c2)s1 [Example A109, (5-(3-Fluorophenyl)-2-methylthiazol-4-yl)((2S,3R)-3-methyl-2-(((5-(trifluoromethyl)pyridin-2-yl)amino)methyl)piperidin-1-yl)methanone]
24 | > 1000 nM |  | Cc1ccc(-c2cnn(C)c2)c(C(=O)N2CCC[C@@H](C)[C@H]2COc2ccc(C(F)(F)F)cn2)c1 [Example A114, ((2S,3R)-3-Methyl-2-(((5-(trifluoromethyl)pyridin-2-yl)oxy)methyl)piperidin-1-yl)(5-methyl-2-(1-methyl-1H-pyrazol-4-yl)phenyl)methanone]
25 | 4 nM |  | Cc1ccc(-n2nccn2)c(C(=O)N2CCC[C@@H](C)[C@H]2CNc2nc3ccccc3o2)c1 [Example A180, ((2S,3R)-2-((Benzo[d]oxazol-2-ylamino)methyl)-3-methylpiperidin-1-yl)(5-methyl-2-(2H-1,2,3-triazol-2-yl)phenyl)methanone]

Row | Structure (SMILES) | IC50 [1] | IC50 [2]
26 | O=C(NCC1CCC(F)CN1C(=O)c1ccccc1-c1ccccc1)c1cccc2cccnc12 (single isomer, unassigned) [Example 37, N-((1-(Biphenylcarbonyl)-5-fluoropiperidin-2-yl)methyl)quinoline-8-carboxamide] |  | 1 nM
27 | O=C(NCC1CCC(F)CN1C(=O)c1ccccc1-c1ccccc1)c1cccc2cccnc12 (single isomer, unassigned) [Example 38, N-((1-(Biphenylcarbonyl)-5-fluoropiperidin-2-yl)methyl)quinoline-8-carboxamide] |  | 4 nM
28 | Cc1nc(-c2ccccc2)c(C(=O)N2CC3CCCCC3C2CNC(=O)c2cccc3cccnc23)s1 (single isomer, unassigned) [Example 65] |  | > 2000 nM
29 | Cc1nc(C(=O)N2CC3CCCCC3C2CNC(=O)c2cccc3occc23)c(-c2ccccc2)s1 (single isomer, unassigned) [Example 70] |  | 170 nM
30 | Cc1nc(C(=O)N2CC3CCCCC3C2CNC(=O)c2cccc3occc23)c(-c2ccccc2)s1 (single isomer, unassigned) [Example 71] |  | 40 nM

Source: US9440982B2 (Eolas Therapeutics, Inc., priority 2012, dated 2016)
